Source: patent US20080206219A1, “Novel Indications for Transforming Growth Factor-Beta Regulators” (THE REGENCTS OF THE UNIVERSITY OF CALIFORNIA, priority 2003, published 2008)
“Also recorded” adds a separate entry of the source.

Legend:
[1] = tested on: gelatinolytic activity in Collα1(I)r/r skin; assay: Substrate conversion assay (DQ-gelatin) on skin lysates; format: biochemical, mice; settings: inhibitor at 4 mM
Description: Shaved back skin pieces from 5-8 week old mice were pulverized in liquid N2 and solubilized in 500 μl buffer (0.25 M sucrose, 5 mM Tris, pH 7.5, protease Inhibitor cocktail mix without EDTA (Roche), 0.25 mg/ml Pefablock (Roche), 0.01 mg/ml Aprotinin (Sigma-Aldrich) using a 2 ml tissue grinder (Fisher) and centrifuged at 4° C. 800×g for 15-min. Supernatants were centrifuged for 1-hr at 100,000×g at 4° C. Supernatants were stored at −80° C., pellets were resuspended in 100 μl solubilization buffer, homogenized by sonication at 4° C., and stored at −80° C. Protein concentration was determined with the BioRad DC Protein assay reagent according to manufacturers instructions (BioRad). Prior to assay, lysate buffers were exchanged using Micro Bio-spin chromatography columns (Bio-gelP-6; BioRad) to 10 mM Tris pH 7.5 according to the manufacturers specifications. […] Reactions were incubated up to 5-hr at 37° C. and fluorescence measured (excitation 485 nm, emission 530 nm) every 3-min on a Microplate Spectrofluorometer (SpectraMax Gemini EM, Molecular Devices) and quantified using SoftMax Pro 4.1 software. […]

[2] = tested on: MP activity; settings: GM6001 i.p. 100 mg/kg, 20 mg/ml slurry in 4% CMC; cited from earlier work
[3] = tested on: TGFβ1; assay: IP-Western of mature dimeric TGFβ1 in tissue lysates of treated mice; format: in vivo; settings: lysates from Collα1(I)+/+ and Collα1(I)r/r mice treated with GM6001
[4] = tested on: Collα1(I)+/+ and Collα1(I)r/r mice; assay: Miles assay: Evans blue leakage in ears after mustard oil challenge; format: in vivo; settings: for Evans blue dye leakage into vascular stroma after MO, GM6001-treated versus vehicle-treated mice: GM6001 i.p. 100 mg/kg daily for 3-days before MO challenge
Description: Evans blue (EB) dye (30 mg/kg in 100 μl PBS; Sigma-Aldrich) was injected into the tail vein of 7- to 8-week-old mice. In some experiments, after 1-min, 30 μl of 5% mustard oil (Phenyl Isothiocyanate, 98%, Sigma-Aldrich) diluted in mineral oil (Sigma-Aldrich) was applied to the dorsal and ventral surfaces of the ear; the application process was repeated 15 minutes later. Isoflurane anesthesized mice were photographed 30 minutes after injection of EB dye. Anesthesized mice were then cardiac perfused, ears removed, blotted dry and weighed. EB dye was extracted from ears in 1 ml of formamide overnight to 48-hrs at 60° C. and measured spectrophotometrically at 610 nm in a SpectraMax 340™ (Molecular Devices). Data are expressed as mean±SEM. Comparisons of the amounts of dye extravasation were evaluated by Mann-Whitney statistical test with p values less than 0.05 considered significant. In some experiments, 5-min prior to the infusion of EB dye, shaved 5-to 7-week old mice were injected (10 μl) intradermally with one of the following agents at the concentrations shown (VEGF120, R&D Systems; VEGF164, Chemicon; histamine, Calbiochem; serotonin, Sigma-Aldrich) and the appearance of a blue spot monitored for 30 minutes at which time mice were euthanized, cardiac perfused, photographed and the area of skin surrounding the site of injection excised (˜5 mm^2), photographed and EB dye extracted as above. […]
The vascular physiology in a mouse model of human Sc, e.g., Collα1(I)^r/r mice, was studied to determine whether an altered balance between collagen synthesis, accumulation and/or degradation was a rate-limiting factor for efficient vascular physiology prior to histopathologic appearance of Sc disease. The ears of Collα1(I)^r/r versus littermate control (Collα1(I)^+/+) mice were treated with vehicle alone (mineral oil; FIG. 1A) or mustard oil (MO; 5% in mineral oil: right ear), an inflammatory agent that induces plasma leakage, vasodilation of capillaries and inflammation in the skin (FIG. 1A). Evans blue dye (30 mg/kg in 100 μl PBS; Sigma Chemical Co., St. Louis, Mo., USA) was injected into the tail vein of the mice. After 1 minute, 5% mustard oil (Phenyl Isothiocyanate, 98%, Sigma) diluted in mineral oil (Sigma) was applied to the dorsal and ventral surfaces of the ear with a cotton swab; the application process was repeated 15 minutes later. […] Isoflurane anesthesized mice were photographed 30 minutes after injection of Evans blue dye. Anesthesized mice were then cardiac perfused, ears removed, blotted dry, and weighed. The Evans blue dye was extracted from the ears with 1 ml of formamide overnight at 60° C. and measured spectrophotometrically at 610 nm in a SpectraMax 340™ (Molecular Devices). Data are expressed as mean±SEM. Comparisons of the amounts of dye extravasation were evaluated by the Fisher's t test with p values less than 0.05 considered significant.
Vascular permeability (VP) responses in control and Collα1(I)^r/r mice treated with a broad spectrum synthetic metalloproteinase inhibitor (MPI), e.g., GM6001 were examined. GM6001 (N-[(2R)-2(hydroxyamidocarbonylmethyl)-4-methylpantanoyl]-L-tryptophan ethylamide), a broad, class-specific metalloproteinase inhibitor (Chemicon, Temecula Calif.), was administered daily i.p. at 100 mg/kg body weight as a 20 mg/ml slurry in 4% carboxymethylcellulose in 0.9% PBS daily for 3-days. Controls were treated with a daily injection of 4% carboxymethylcellulose in PBS. The animals were then subject to cutaneous challenge with MO and qualitative and quantitative assessment of Evans blue dye leakage into vascular stroma (FIG. 5A).

[5] = control versus Colα1(I)r/r mice +/- mustard oil, p<0.03

c1cnc2c(c1)ccc1cccnc12 [1,10 phenanthroline]
gelatinolytic activity in skin lysate [1]: completely inhibited

CNC(=O)[C@H](Cc1c[nH]c2ccccc12)NC(=O)[C@@H](CC(=O)NO)CC(C)C [GM6001]
in vivo MP activity [2]: inhibit in vivo MP activity
level of ~25 kDa dimeric mature form of TGFβ1 in tissue lysates [3]: markedly decreased; also recorded: reduced
Evans blue dye leakage into vascular stroma after MO, GM6001-treated versus vehicle-treated mice ([4]; Collα1(I)r/r mice): significantly above vehicle-treated; also recorded: restored the appropriate acute vascular responses; also recorded: restores acute vascular responses
Evans blue dye leakage into vascular stroma after MO, GM6001-treated versus vehicle-treated mice ([4]; control Collα1(I)+/+ mice): higher than that observed in MO-treated control mice receiving vehicle alone; also recorded: even more susceptible to MO-induced EB leakage; also recorded: hyper-sensitive to vascular leakage
effect of GM6001, fold increase (FIG. 5) [4, 5]: 1.8 fold
effect of GM6001, increase in % (FIG. 5) [4, 5]: 54%
